One data set is described as follows: Solubility. In kind it is physicochemical.
Another data set has as its system HCT116. Description: In vitro toxicity / growth inhibition (CellTiter-Glo), HCT116. Format: cell-based. The settings on record: Homo sapiens, HCT-116; HCT116, 48 hr. The method, then: (§1) In order to determine in vitro toxicity of a compound in accordance with the present invention, 18 species of human cancer cell lines (HeLa, cervical cancer cell line; HCT116, SW480, SW620, RKO, colon cancer cell lines; H460, H1299, A549, lung cancer cell lines; MCF7, MDA-MB231, MDA-MB453, breast cancer cell lines; Jurkat, K562, THP1, Ramos, U937, blood cancer cell lines; PC3, DU145, prostate cancer cell lines) were used. Cell lines were cultured in RPMI 1640 culture medium containing penicillin/streptomycin (100 units/mL) and heat-inactivated 5% fetal bovine serum (FBS) under standard culture conditions ([…], 5% CO2, and 100% relative humidity). Thereafter, single cell suspension was obtained via trypsin treatment and pipetting. The suspension was diluted with the same medium such that a cell density is in a range of 8×10^3 to 1.5×10^4 cells/well, and was transferred to a 96-well microtiter plate. After culturing for 24 hours, cell cultures were treated with respective compounds of Examples at various concentrations. […] The above evaluation was carried out according to the methods given in a manufacture's manual. GI50 in Table 1 below refers to a concentration that compounds of Examples cause 50% growth inhibition of various cancer cells.
A general note: Cellular ATP, detected with luciferase, serves as a proxy for viable cell number.

The subject of another data set is HDAC. Description: Inhibition of HDAC activity (fluorometric, HeLa nuclear extract). The settings on record: 30 min room temperature. Format: biochemical, human. The method, then:
In order to determine inhibitory activity of a compound in accordance with the present invention on HDAC, evaluation was carried out using an aminocoumarin derivative of ω-acetylated lysine as a substrate for an enzyme. As an enzyme source, a nuclear extract obtained from human cervical cancer cell line HeLa cells was used. The above evaluation was carried out with modification of a method based on the details described in Weegener et al. (2003) Analytical Biochemistry, 321, 203-208. That is, […], […] of nuclear extract and a compound of Example 1 at different concentrations were added and maintained at room temperature for 30 min. Trypsin (10 mg/ml) and Trichostatin A (final concentration: […]) were added to the resulting mixture which was reacted at the same temperature for 20 min, thereby terminating the reaction. The enzyme activity-inhibitory concentration of the compound added was determined using a fluorometer. As a control compound, suberoylanilide hydroxamic acid (SAHA) was used. IC50 in Table 1 below refers to a concentration of the compound that leads to a 50% decrease in activity of HDAC.

The subject of a further data set is HeLa. Description: In vitro toxicity / growth inhibition (CellTiter-Glo), HeLa. The settings on record: Homo sapiens, 48 hr. In kind it is cell-based. The method, then:
as §1

Another data set has as its system ICR-BG mice. The settings on record: mouse, in vivo. Here is the method:
In order to confirm acute toxicity in vivo, a Rotarod Neurotoxicity test was carried out on ICR-BG mice (N=8). Animals were administered at a dose of 300 mg/kg. Animals received training at 7 rpm for 10 min twice, and 1 hour later the compound of Example 1 was administered intraperitoneally (ip) to 8 mice. Thereafter, for one minute at the intervals of every 30 min, 1 hour, 2 hours and 4 hours, times that animals fell from the rotarod and death of animal post-drug administration or affliction-related responses were continuously observed. When mice fell from the rotarod more than thrice in one minute, it was regarded as fall off.

A further data set relates to Histone Deacetylase. Description: Histone H3/H4 acetylation in HCT116 cells (Western blot). In kind it is cell-based, human. The settings on record: 1 μM, HCT116, 0, 2 and 5 hours. Here is the method: Human color cancer cell line (HCT116) was cultured in RPMI 1640 culture medium containing penicillin/streptomycin (100 units/mL) and heat-inactivated 5% fetal bovine serum (FBS) under standard culture conditions ([…], 5% CO2, 37° C., and 100% relative humidity). Test compounds were dissolved in dimethylsulfoxide (DMSO) and were used as a final concentration of 1 μM. Cells (3×10^7) were cultured in the presence of the test compound (1 μM, Example 1) and absence thereof for 0, 2 and 5 hours, respectively. The cell suspension, which was obtained via trypsin treatment and pipetting, was centrifuged at 200×g for 10 min to form a pellet. The thus-formed pellet was washed twice with 10-fold volume of saline and re-suspended in a buffer [[…], pH 7.9, 1.5 mM MgCl2, 10 mM KCl, 0.5 mM DTT, 1.5 mM PMSF]. Thereafter, hydrochloric acid was added in a final concentration of 0.2 M to the resulting suspension which was then stored on ice for 30 min. The final suspension was centrifuged at 11,000 rpm and 4° C. for 10 min. […]
Dialyzed proteins were subjected to gel electrophoresis using 16% protein gel and were probed with acetylated histone H3 (Ac-H3) or H4 (Ac-H4) antibodies (Upstate Biotechnology Inc). […] In order to compare the equal amount of proteins, protein quantification and protein gel were run in parallel, followed by coumassie blue staining.
Background: In western blotting, separated proteins are transferred to a membrane and probed.

The test system of another data set is H460. Description: In vitro toxicity / growth inhibition (CellTiter-Glo), H460. The settings on record: Homo sapiens, NCI-H460; H460, 48 hr. In kind it is cell-based. Here is the method: as §1
The next data set relates to Raw cell. Nature of the data set: Inhibition of LPS-induced NO increases. In kind it is cell-based, Mouse. The settings on record: 5 μM compound; for NO: LPS, 18 hours, Griess Reagent; for activity at 5 µM: Mus musculus, 18 h, relative to LPS alone control. The method, then: As one of the methods to confirm anti-inflammatory responses, inhibition of increases in nitric oxide (NO) due to lipopolysaccharide (LPS) was carried out. Mouse cell line (Raw cell) was cultured in RPMI 1640 culture medium containing penicillin/streptomycin (100 units/mL) and heat-inactivated 5% fetal bovine serum (FBS) under standard culture conditions ([…], 5% CO2, 37° C., and 100% relative humidity). Test compounds were dissolved in dimethylsulfoxide (DMSO) and were used as a final concentration of 1 to 40 μM. Cells were proliferated to a cell density of 5×10^3 to 2×10^4 cells on a 24-well plate and were treated with the respective compounds (equal amounts of 5 μM) 1 hour prior to treatment with LPS ([…]). The thus-treated cells were cultured for 18 hours, and thereafter the amounts of NO thus produced were measured using Griess Reagent. Measurement was confirmed using an absorption spectrophotometer at 540 nm. The value was expressed as percentage (%) relative to a control in which LPS alone was treated.
(The Griess reaction detects nitrite, a stable product of nitric oxide.)

A further data set has as its system MCF7. Description: In vitro toxicity / growth inhibition (CellTiter-Glo), MCF7. In kind it is cell-based. The settings on record: Homo sapiens; MCF7, 48 hr. Here is the method: as §1

The structures appear in SMILES notation. Values after ≈ are worked out from the molar mass of the structure shown. Read-outs that look alike come from different tables or passages of the source.

`COc1ccc(-c2oc(CCCCCCC(=O)NO)nc2-c2ccccc2)cc1` [Example 1, 7-(5-(4-methoxyphenyl)-4-phenyloxazol-2-yl)heptanoic acid hydroxyamide] showed a solubility in “Solubility” of 200 µg/mL (≈ 507 µM). Besides, the GI50 came out at 3 µM in the data set on HCT116, 1.4 µM in the data set with HeLa, 3.63 µM in the data set with H460 and 0.7 µM in the data set on MCF7. Also, the IC50 with HDAC came out at 0.00107 µM. In addition, the “Mice fallen off rotarod” value is listed as 1/8(Fallen off) in the data set on ICR-BG mice (0.5 h), 1/8 with ICR-BG mice (1 h), 0/8 in the data set on ICR-BG mice (2 h) and 0/8 in the data set on ICR-BG mice (4 h). The “Acetylation of histone H3 (Ac-H3) and H4 (Ac-H4)” value in the data set with Histone Deacetylase is on record as “acetylated over time was confirmed via Western blot analysis”. This compound registered an NO in the data set on Raw cell of 63.7 μM/L. Moreover, in the data set with Raw cell, the activity at 5 µM was determined as 57.9%.
Compound `COc1ccc(-c2nc(CCCCCCC(=O)NO)oc2-c2cccnc2)cc1` [Example 13, 7-[4-(4-methoxy-phenyl)-5-pyridin-3-yl-oxazol-2-yl]-heptanoic acid hydroxyamide] had a solubility in the data set “Solubility” of 900 µg/mL (≈ 2280 µM). The 50% growth inhibitory concentration (GI50) in the data set with HCT116 was found to be 3.9 µM; with HeLa, 3.9 µM; with H460 it was 4.4 µM; in the data set with MCF7, 1 µM. For the same compound, in the data set with HDAC, the IC50 turned out to be 0.0145 µM. The same compound gave an NO in the data set on Raw cell of 57.1 μM/L. The compound also had an activity at 5 µM in the data set on Raw cell of 39.2%.
`CN(C)c1ccc(-c2nc(CCCCCCC(=O)NO)oc2-c2cccnc2)cc1` [Example 14, 7-[4-(4-dimethylamino-phenyl)-5-pyridin-3-yl-oxazol-2-yl]-heptanoic acid hydroxyamide] returned a solubility in “Solubility” of 1000 µg/mL (≈ 2450 µM). For the same compound, the GI50 with HCT116 turned out to be 8.7 µM; in the data set with HeLa it was 7.8 µM; in the data set on H460, 23.5 µM; in the data set with MCF7, 8.7 µM. In the data set on HDAC, this compound showed an IC50 of 0.00295 µM. For the same compound, in the data set on Raw cell, the NO amounted to 69.6 μM/L. In addition, the activity at 5 µM with Raw cell came out at 74.4%.
In “Solubility”, `O=C(CCCCCCc1nc(-c2ccccc2)c(-c2ccncc2)o1)NO` [Example 17, 7-(4-phenyl-5-pyridin-4-yl-oxazol-2-yl)-heptanoic acid hydroxyamide] registered a solubility of 900 µg/mL (≈ 2460 µM). In addition, the 50% growth inhibitory concentration (GI50) in the data set on HCT116 worked out at 5.4 µM; in the data set on HeLa, 3.5 µM; in the data set on H460 it was 7.3 µM; in the data set with MCF7, 1.8 µM. In the data set on HDAC, this compound returned an IC50 of 0.0195 µM. The NO with Raw cell came to 59.6 μM/L. The compound also came in with an activity at 5 µM in the data set on Raw cell of 46.1%.

What is called solubility is the concentration that dissolves in the medium under given conditions. The GI50 is the concentration giving 50% growth inhibition. High values mean less potent growth inhibition, low ones more potent growth inhibition. For orientation: IC50 means the concentration that inhibits the measured activity by half.

For the origin of these results see patent US8039634B2, “Oxazole hydroxamic acid derivatives and use thereof” (SK Holdings Co., Ltd., priority 2005, dated 2011).
